Reference: patent US10391173B2, “Anti-ar agent and radiation therapy for androgen receptor positive cancer” (The Cleveland Clinic Foundation, priority 2016, dated 2019)

Columns and labels:
MDAMB453 cells [1] = settings: steroid-deprived media supplemented with 1 nM DHT for 24 hours
Procedure: (d) Cells were cultured in hormone-proficient (FBS) media for 24 hours −/+ ENZ and then treated with IR: mock (ϕ 3 Gy (HMC18 and MDAMB453), or 2 Gy (C4-2). Cells were cultured in steroid-deprived media for 48 hours, treated −/+ DHT for 24 hours, and then treated with IR: mock (ϕ), 3 Gy (HMC18 and MDAMB453), or 2 Gy (C4-2). γH2AX, HDAC1, and actin levels were measured at the indicated time points. Relative intensity of γH2AX was calculated by ImageJ64. (e) MDAMB453 cells were cultured in steroid-replete, steroid-deficient, or steroid-deficient with 1 nM DHT for 24 hours, then treated with irradiation. Cells were harvested and expression of γDNAPKcs was analyzed.
Whole cell lysates were prepared using M-PER lysis buffer and clarified by centrifugation. Proteins were separated by SDS-PAGE and transferred onto 0.45 μM nitrocellulose membranes (Maine Manufacturing; Sanford, Me.). After primary antibody incubation for 1-2 hours at room temperature, washings, and incubation with secondary antibodies, blots were developed with a chemoluminescence system (Amersham/GE Healthcare). For γH2AX measurements, proteins were transferred onto 0.2 μM nitrocellulose (Bio-Rad).
The phosphorylation of DNAPKcs on Ser2056 was examined, which is indicative of activated DNAPKcs, in MDAMB453 cells.

[2] = system: C4-2 prostate cancer cells; settings: AR-positive cells; 2 Gy
Procedure: (a) (Top) Cells were cultured in steroid-deprived media −/+ DHT for 24 hours and then treated with IR: mock (ϕ), 4 Gy, or 6 Gy. Cells were then supplemented with hormone-proficient media at 48 hours post-IR. […] (Bottom) Cells were cultured in hormone-proficient media for 24 hours without or with enzalutamide (ENZ) and then treated with IR; mock (ϕ) or 4 Gy. Error bars represent normalized s.e.m of at least three experiments. […] Error bars represent normalized s.e.m of at least three experiments and the Student's t-test was used for statistical analysis. *, P<0.05. […] Error bars represent s.e.m of at least three experiments and the Student's t-test was used for statistical analysis. *, P<0.05. (d) Cells were cultured in hormone-proficient (FBS) media for 24 hours −/+ ENZ and then treated with IR: mock (ϕ 3 Gy (HMC18 and MDAMB453), or 2 Gy (C4-2). Cells were cultured in steroid-deprived media for 48 hours, treated −/+ DHT for 24 hours, and then treated with IR: mock (ϕ), 3 Gy (HMC18 and MDAMB453), or 2 Gy (C4-2). γH2AX, HDAC1, and actin levels were measured at the indicated time points. Relative intensity of γH2AX was calculated by ImageJ64. (e) MDAMB453 cells were cultured in steroid-replete, steroid-deficient, or steroid-deficient with 1 nM DHT for 24 hours, then treated with irradiation. Cells were harvested and expression of γDNAPKcs was analyzed. […]

MDAMB453 cells [3] = assay: γH2AX formation and resolution kinetics (Western blot); type: cell-based, human; settings: 3 Gy; effect persisted at 24 hours
[4] = system: MCF7, BT474, CAMA1, HCC202, MDAMB453, HMC18 cells; assay: Growth survival assay after IR across several breast cancer cell lines; type: cell-based, human; settings: only in cell lines that expressed AR, independent of ER and ErbB2 activity
Procedure: (a) (Top) Cells were cultured in steroid-deprived media −/+ DHT for 24 hours and then treated with IR: mock (ϕ), 4 Gy, or 6 Gy. Cells were then supplemented with hormone-proficient media at 48 hours post-IR. Cell number was determined on day 14-21. (Bottom) Cells were cultured in hormone-proficient media for 24 hours without or with enzalutamide (ENZ) and then treated with IR; mock (ϕ) or 4 Gy. Error bars represent normalized s.e.m of at least three experiments. (b) MCF7, BT474, CAMA1, HCC202, and MDAMB453 cells were treated with ENZ, ENZ+IR, DHT, or DHT+IR as in (a). HMC18 cells were treated similarly but were profiled by clonogenic survival assays. […]
(§2) Cells were plated using a Multidrop Combi liquid handler (Thermo Fisher) in at least quadruplicates for each time point at three cell densities (range 25-225 cells per well) in a white 384-well plate (Corning, N.Y.). […] Relative luminescence units were measured using an Envision multilabel plate reader (Perkin Elmer) with a measurement time of 0.1 seconds. Luminescence signal is proportional to the amount of ATP present. […] The luminescence signal was plotted as a function of cell density and a cell density within the linear range for luminescence (or growth) was selected to generate integral survival for each cell line. […]

MDAMB453 cells [5] = assay: Neutral comet assay; type: cell-based, human; settings: pretreated 24 hours prior to 15 Gy of irradiation; ENZ 20 μM
Procedure: (§1) Single-cell gel electrophoresis was conducted in alkaline or neutral buffer according to the manufacturer's instructions, Trevigen (Gaithersburg, Md.). Slides were blinded and enumerated by a single user.

MDAMB453 cells [6] = assay: Growth survival assay after IR with DHT or ENZ pretreatment; type: cell-based, human
Procedure: (a) (Top) Cells were cultured in steroid-deprived media −/+ DHT for 24 hours and then treated with IR: mock (ϕ), 4 Gy, or 6 Gy. Cells were then supplemented with hormone-proficient media at 48 hours post-IR. Cell number was determined on day 14-21. (Bottom) Cells were cultured in hormone-proficient media for 24 hours without or with enzalutamide (ENZ) and then treated with IR; mock (ϕ) or 4 Gy. Error bars represent normalized s.e.m of at least three experiments. (b) MCF7, BT474, CAMA1, HCC202, and MDAMB453 cells were treated with ENZ, ENZ+IR, DHT, or DHT+IR as in (a). […] Error bars represent normalized s.e.m of at least three experiments and the Student's t-test was used for statistical analysis. *, P<0.05. […]
as §2

[7] = system: MDAMB453 orthotopic xenografts; assay: MDAMB453 orthotopic xenograft study
Procedure: (g) MDAMB453 cells were orthotopically injected into the mammary gland of NSG mice and block randomized into one of four treatment arms as shown. Tumor volume was measured daily. Error bars represent normalized s.e.m of at least seven mice in each treatment arm. *, P<0.05 compared with all other treatment conditions based on ANOVA and Tukey Contrasts. **, P<0.05 for interaction based on two-way ANOVA. […] This cohort received ENZ at 25 mg kg^−1. (i) Average weight for each arm in both cohorts was measured weekly. Data are expressed as the means±s.e. of at least seven mice in each treatment arm.
Female NSG mice, 6-8 weeks of age, were obtained from the Cleveland Clinic Biological Resources Unit facility. All mouse studies were conducted under a protocol approved by the Cleveland Clinic Institutional Animal Care and Use Committee MDAMB453 cells were resuspended in serum free media and injected into the inguinal mammary gland. Once tumors reached 200 mm^3, mice were block randomized and assigned to vehicle, enzalutamide, vehicle plus radiotherapy, or enzalutamide plus radiotherapy. Two cohorts consisting of these four arms underwent treatment. Vehicle consisted of a volume of 5 mL per kg of PEG-400 solution containing 1.5%/0 of DMSO for cohort 1 and 2.5% DMSO for cohort 2 via oral gavage daily. Cohort 1 received enzalutamide at 15 mg kg^−1 and cohort 2 received enzaluatmide at 25 mg kg^−1. Radiotherapy was delivered to a dose of 1.5 Gy in three fractions once tumor size reached 250 mm^3. Treatment was not blinded to the investigator. Tumor volume was measured daily. Mice were sacrificed once their tumors reached an approximate size of 1,000 mm^3 or at treatment days 21-28. The significance of the difference between treatment groups was assessed by one-way and the interaction between drug and radiation was measured by two-way ANOVA.

BT474 cells = assay: Neutral comet assay; type: cell-based, human; settings: irradiated (10 Gy) after 24 hours of treatment with ENZ (20 μM)
Procedure: FIG. 16: AR regulates DNA damage and repair in AR, ER positive cells.
as §1

HMC18 cells = assay: γH2AX formation and resolution kinetics (Western blot); type: cell-based, human; settings: AR-negative cells; 3 Gy

| SMILES | γDNAPKcs levels following irradiation (MDAMB453 cells [1]) | γH2AX resolution [2] | Levels of γH2AX after irradiation (MDAMB453 cells [3]) | Protection or sensitization to radiation [4] | DNA damage (double-strand breaks) (MDAMB453 cells [5]) | Cell growth after radiation (MDAMB453 cells [6]; DHT re-supplementation in steroid-deprived media before radiation, IR 4 or 6 Gy) | Tumor growth, ENZ alone ([7]; 15 mg kg^−1, used alone) | Tumor suppression, interaction with radiotherapy ([7]; 15 mg kg^−1 plus radiotherapy) | Tumor growth, ENZ ([7]; 25 mg kg^−1) | Body weight loss during the course of treatment ([7]; ENZ 25 mg kg^−1 and radiation) [%] | Tumor growth, combination with ionizing radiation ([7]; ENZ at 15 mg kg^−1 or 25 mg kg^−1 plus ionizing radiation) | Double-strand breaks (BT474 cells) | Cell number after radiation (MDAMB453 cells [6]; hormone-proficient media, ENZ 24 hours before IR 4 Gy, compared to vehicle) | Kinetics of γH2AX formation and resolution (HMC18 cells) |
| --- | --- | --- | --- | --- | --- | --- | --- | --- | --- | --- | --- | --- | --- | --- |
| C[C@]12CCC(=O)C[C@@H]1CC[C@@H]1[C@@H]2CC[C@]2(C)[C@@H](O)CC[C@@H]12 [DHT, Dihydrotestosterone] | maintained γDNAPKcs at similar levels to those cells grown in the steroid-replete media | hastened γH2AX resolution | decreased | protection | decreased | dose dependent rescue of cell growth |  |  |  |  |  |  |  |  |
| CNC(=O)c1ccc(N2C(=S)N(c3ccc(C#N)c(C(F)(F)F)c3)C(=O)C2(C)C)cc1F [ENZ, enzalutamide] |  |  | increased shortly after irradiation | sensitization | increased DNA damage |  | no effects on tumor growth | interactive tumor suppression with radiotherapy | Suppression of tumor growth | ~10 | more effective suppression of tumor growth than either modality alone | increased double-strand breaks | decreased cell number compared to vehicle alone | unaffected |
